Laboratory results as given in patent US5977373A, “Thiadiazolyl and oxadiazolyl phenyl oxazolidinone antibacterial agents” (Pharmacia & Upjohn Company, priority 1998, dated 1999).
≈ marks a conversion by molar mass, not a printed value.

Legend:
[1] = tested on: S. Aureus UC ® 9213; assay: In vitro minimum inhibitory concentration (MIC) by agar dilution, gram-positive bacteria (Table 1); format: cell-based; details: Staphylococcus aureus, UC9213
From the text: (§1) The oxazolidinone antibacterial agents of this invention have useful activity against a variety of microorganisms. The in vitro activity of compounds of this invention can be assessed by standard testing procedures such as the determination of minimum inhibitory concentration (MIC) by agar dilution as described in "Methods for Dilution Antimicrobial Susceptibility Tests for Bacteria That Grow Aerobically" (MFT) published January 1983 by the National Committee for Clinical Laboratory Standards, 771 East Lancaster Avenue, Villanova, Pa. 19084, USA. The activity of selected compounds of this invention against Staphylococcus aureus and Streptococcus pneumoniae are shown in Table 1.

[2] = tested on: S. pneumoniae UC ® 9912; assay: as above; format: cell-based; details: Streptococcus pneumoniae, UC9912
From the text: as §1

| SMILES | MIC [1] | MIC [2] |
| --- | --- | --- |
| CC(=O)NC[C@H]1CN(c2ccc(-c3nnc(C(N)=O)s3)c(F)c2)C(=O)O1 [Example 2, (S)-5-[4-[5-[(Acetylamino)methyl]-2-oxo-3-oxazolidinyl]-2-fluorophenyl]-1,3,4-thiadiazole-2-carboxamide] | 0.5 µg/mL (≈ 1.32 µM) | 0.25 µg/mL (≈ 0.659 µM) |
| CCCc1nnc(-c2ccc(N3C[C@H](CNC(C)=O)OC3=O)cc2F)s1 [Example 5, (S)-N-[[3-[3-Fluoro-4-(5-propyl-1,3,4-thiadiazol-2-yl)phenyl]-2-oxo-5-oxazolidinyl]methyl]acetamide] | 1 µg/mL (≈ 2.64 µM) | 0.25 µg/mL (≈ 0.661 µM) |
| COCc1nnc(-c2ccc(N3C[C@H](CNC(C)=O)OC3=O)cc2F)s1 [Example 12, (S)-N-[[3-[3-Fluoro-4-[5-(methoxymethyl)-1,3,4-thiadiazol-2-yl]phenyl]-2-oxo-5-oxazolidinyl]methyl]acetamide] | 2 µg/mL (≈ 5.26 µM) | 0.25 µg/mL (≈ 0.657 µM) |
| CC(=O)NC[C@H]1CN(c2ccc(-c3nnc(C(F)(F)F)s3)c(F)c2)C(=O)O1 [Example 15, (S)-N-[[3-[3-Fluoro-4-[5-(trifluoromethyl)-1,3,4-thiadiazol-2-yl]phenyl]-2-oxo-5-oxazolidinyl]methyl]acetamide] | 2 µg/mL (≈ 4.95 µM) | 0.5 µg/mL (≈ 1.24 µM) |
| CC(=O)NC[C@H]1CN(c2ccc(-c3nnc(CCC(C)O)s3)c(F)c2)C(=O)O1 (stereo partly drawn) [Example 17, (5S)-N-[[3-[3-Fluoro-4-[5-(3-hydroxybutyl)-1,3,4-thiadiazol-2-yl]phenyl]-2-oxo-5-oxazolidinyl]methyl]acetamide] | 2 µg/mL (≈ 4.9 µM) | 0.25 µg/mL (≈ 0.612 µM) |
| COC(=O)CCc1nnc(-c2ccc(N3C[C@H](CNC(C)=O)OC3=O)cc2F)s1 [Example 18, (S)-Methyl 5-[4-[5-[(acetylamino)methyl]-2-oxo-3-oxazolidinyl]-2-fluorophenyl]-1,3,4-thiadiazole-2-propanoate] | 2 µg/mL (≈ 4.73 µM) | 0.25 µg/mL (≈ 0.592 µM) |
| CC(=O)NC[C@H]1CN(c2ccc(-c3nnc(CCC(N)=O)s3)c(F)c2)C(=O)O1 [Example 19, (S)-5-[4-[5-[(Acetylamino)methyl]-2-oxo-3-oxazolidinyl]-2-fluorophenyl]-1,3,4-thiadiazole-2-propanamide] | 8 µg/mL (≈ 19.6 µM) | < 0.125 µg/mL |
| CSCc1nnc(-c2ccc(N3C[C@H](CNC(C)=O)OC3=O)cc2F)s1 [Example 21, (S)-N-[[3-[3-Fluoro-4-[5-[(methylthio)methyl]-1,3,4-thiadiazol-2-yl]phenyl]-2-oxo-5-oxazolidinyl]methyl]acetamide] | 1 µg/mL (≈ 2.52 µM) | 0.25 µg/mL (≈ 0.631 µM) |
| CC(=O)NC[C@H]1CN(c2ccc(-c3nnc(C[S+](C)[O-])s3)c(F)c2)C(=O)O1 (stereo partly drawn) [Example 22, (S)-N-[[3-[3-Fluoro-4-[5-[(methylsulfinyl)methyl]-1,3,4-thiadiazol-2-yl]phenyl]-2-oxo-5-oxazolidinyl]methyl]acetamide] | 8 µg/mL (≈ 19.4 µM) | 0.25 µg/mL (≈ 0.606 µM) |
| CSCCc1nnc(-c2ccc(N3C[C@H](CNC(C)=O)OC3=O)cc2F)s1 [Example 23, (S)-N-[[3-[3-Fluoro-4-[5-[2-(methylthio)ethyl]-1,3,4-thiadiazol-2-yl]phenyl]-2-oxo-5-oxazolidinyl]methyl]acetamide] | 1 µg/mL (≈ 2.44 µM) | 0.25 µg/mL (≈ 0.609 µM) |
| CCOC(=O)Cc1nnc(-c2ccc(N3C[C@H](CNC(C)=O)OC3=O)cc2F)s1 [Example 25, (S)-Ethyl 5-[4-[5-[(acetylamino)methyl]-2-oxo-3-oxazolidinyl]-2-fluorophenyl]-1,3,4-thiadiazole-2-acetate] | 2 µg/mL (≈ 4.73 µM) | 0.25 µg/mL (≈ 0.592 µM) |
| CCOC(=O)c1nnc(-c2ccc(N3C[C@H](CNC(C)=O)OC3=O)cc2F)s1 [Example 27, (S)-Ethyl 5-[4-[5-[(acetylamino)methyl]-2-oxo-3-oxazolidinyl]-2-fluorophenyl]-1,3,4-thiadiazole-2-carboxylate] | 8 µg/mL (≈ 19.6 µM) | < 0.125 µg/mL |
| CC(=O)NC[C@H]1CN(c2ccc(-c3nnc(CC(C)O)s3)c(F)c2)C(=O)O1 (stereo partly drawn) [Example 28, (5S)-N-[[3-[3-Fluoro-4-[5-(2-hydroxypropyl)-1,3,4-thiadiazol-2-yl]phenyl]-2-oxo-5-oxazolidinyl]methyl]acetamide] | 2 µg/mL (≈ 5.07 µM) | 0.25 µg/mL (≈ 0.634 µM) |
| CC(=O)NC[C@H]1CN(c2ccc(-c3nnc(N)s3)c(F)c2)C(=O)O1 [Example 30, (S)-N-[[3-[4-(5-Amino-1,3,4-thiadiazol-2-yl)-3-fluorophenyl]-2-oxo-5-oxazolidinyl]methyl]acetamide] | 4 µg/mL (≈ 11.4 µM) | 0.25 µg/mL (≈ 0.712 µM) |
| CC(=O)NC[C@H]1CN(c2ccc(-c3nsc(C(N)=O)n3)c(F)c2)C(=O)O1 [Example 33, (S)-3-[4-[5-[(Acetylamino)methyl]-2-oxo-3-oxazolidinyl]-2-fluorophenyl]-1,2,4-thiadiazole-5-carboxamide] | 16 µg/mL (≈ 42.2 µM) | 2 µg/mL (≈ 5.27 µM) |
| CC(=O)NC[C@H]1CN(c2ccc(-c3ncns3)c(F)c2)C(=O)O1 [Example 34, (S)-N-[[3-[3-Fluoro-4-(1,2,4-thiadiazol-5-yl)phenyl]-2-oxo-5-oxazolidinyl]methyl]acetamide] | 1 µg/mL (≈ 2.97 µM) | 0.25 µg/mL (≈ 0.743 µM) |
| CC(=O)NC[C@H]1CN(c2ccc(-c3noc(C)n3)c(F)c2)C(=O)O1 [Example 35, (S)-N-[[3-[3-Fluoro-4-(5-methyl-1,2,4-oxadiazol-3-yl)phenyl]-2-oxo-5-oxazolidinyl]methyl]acetamide] | 16 µg/mL (≈ 47.9 µM) | 4 µg/mL (≈ 12 µM) |
| CC(=O)NC[C@H]1CN(c2ccc(-c3ncon3)c(F)c2)C(=O)O1 [Example 36, (S)-N-[[3-[3-Fluoro-4-(1,2,4-oxadiazol-3-yl)phenyl]-2-oxo-5-oxazolidinyl]methyl]acetamide] | 4 µg/mL (≈ 12.5 µM) | 1 µg/mL (≈ 3.12 µM) |
| CC(=O)NC[C@H]1CN(c2ccc(-c3noc(C(N)=O)n3)c(F)c2)C(=O)O1 [Example 37, (S)-3-[4-[5-[(Acetylamino)methyl]-2-oxo-3-oxazolidinyl]-2-fluorophenyl]-1,2,4-oxadiazole-5-carboxamide] | > 16 µg/mL | 1 µg/mL (≈ 2.75 µM) |
| CC(=O)NC[C@H]1CN(c2ccc(-c3noc(C#N)n3)c(F)c2)C(=O)O1 [Example 38, (S)-N-[[3-[4-(5-Cyano-1,2,4-oxadiazol-3-yl)-3-fluorophenyl]-2-oxo-5-oxazolidinyl]methyl]acetamide] | > 16 µg/mL | 2 µg/mL (≈ 5.79 µM) |
| CC(=O)NC[C@H]1CN(c2ccc(-c3noc(C(F)(F)F)n3)c(F)c2)C(=O)O1 [Example 39, (S)-N-[[3-[3-Fluoro-4-[5-(trifluoromethyl)-1,2,4-oxadiazol-3-yl]phenyl]-2-oxo-5-oxazolidinyl]methyl]acetamide] | 16 µg/mL (≈ 41.2 µM) | 8 µg/mL (≈ 20.6 µM) |
| CC(=O)NC[C@H]1CN(c2ccc(-c3ncno3)c(F)c2)C(=O)O1 [Example 40, (S)-N-[[3-[3-Fluoro-4-(1,2,4-oxadiazol-5-yl)phenyl]-2-oxo-5-oxazolidinyl]methyl]acetamide] | 2 µg/mL (≈ 6.24 µM) | 0.5 µg/mL (≈ 1.56 µM) |
| CC(=O)NC[C@H]1CN(c2ccc(-c3nnc(NC=O)s3)c(F)c2)C(=O)O1 [Example 41, (S)-N-[[3-[3-Fluoro-4-[5-(formylamino)-1,3,4-thiadiazol-2-yl]phenyl]-2-oxo-5-oxazolidinyl]methyl]acetamide] | 4 µg/mL (≈ 10.5 µM) | 0.5 µg/mL (≈ 1.32 µM) |
| CC(=O)NC[C@H]1CN(c2ccc(-c3nnc(CCCl)s3)c(F)c2)C(=O)O1 [Example 42, (S)-N-[[3-[4-[5-(2-Chloroethyl)-1,3,4-thiadiazol-2-yl]-3-fluorophenyl]-2-oxo-5-oxazolidinyl]methyl]acetamide] | 1 µg/mL (≈ 2.51 µM) | < 0.125 µg/mL |
